# Experimental data reported in US8076487B2, “Pyridone derivative and herbicide” (Kumiai Chemical Industry Co., Ltd., priority 2006, dated 2011).
# Legend:
# Format in all cases: in vivo
# [1] = tested on: slender amaranth (Amaranthus viridis L.); assay: Test Example 3: herbicidal effect by application to upland field (foliage treatment); conditions: foliage treatment, plants grown two weeks, 1,000 g active ingredient per hectare, 14th day after application
# How it was run: (§1)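 Foliage treatment, greenhouse: 2-week-old plants in field soil; wettable powder in water sprayed over the top at 1,000 g a.i./ha (1,000 L/ha); rating on day 14 post-application.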
# [2] = tested on: velvetleaf (Abutilon theophrasti medicus); assay: as above; conditions: foliage treatment, plants grown two weeks, 1,000 g active ingredient per hectare, 14th day after application
# How it was run: as §1
# [3] = tested on: barnyardgrass (Echinochloa crus-galli (L.) P. Beauv. var. crus-galli); assay: as above; conditions: foliage treatment, plants grown two weeks, 1,000 g active ingredient per hectare, 14th day after application
# How it was run: as §1
# [4] = tested on: green foxtail (Setaria viridis (L.) P. Beauv.); assay: as above; conditions: foliage treatment, plants grown two weeks, 1,000 g active ingredient per hectare, 14th day after application
# How it was run: as §1
# [5] = tested on: heartshape false pickerelweed (Monochoria vaginalis (Burm.f.) C.Presl); assay: Test Example 1: herbicidal effect by soil application to paddy field; conditions: paddy field soil application; active ingredient 1,000 g per 1 hectare; wettable powder added dropwise to water surface the day after sowing; examined on the 21st day after application
# How it was run: (§2)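 Under greenhouse conditions, seeds sown on puddled paddy soil in 100 cm2 pots under 3 cm of standing water received the test compound; injury was assessed with a standard scoring scheme three weeks (day 21) after treatment.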
# [6] = tested on: early watergrass (Echinochloa oryzicola Vasing); assay: as above; conditions: paddy field soil application; active ingredient 1,000 g per 1 hectare; wettable powder added dropwise to water surface the day after sowing; examined on the 21st day after application
# How it was run: as §2
# [7] = tested on: Japanese bulrush (Scirpus juncoides Roxb.); assay: as above; conditions: paddy field soil application; active ingredient 1,000 g per 1 hectare; wettable powder added dropwise to water surface the day after sowing; examined on the 21st day after application
# How it was run: as §2
# [8] = tested on: slender amaranth (Amaranthus viridis L.); assay: Test Example 2: herbicidal effect by soil application to upland field; conditions: soil surface spray, upland field soil, 1,000 g active ingredient per hectare, 21st day after application
# How it was run: (§3)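 Using a small sprayer, we treat the soil surface of pots just after sowing and covering seeds. The aqueous wettable powder supplies 1,000 g a.i./ha in 1,000 L water/ha; after greenhouse growth, injury is scored on day 21 using a standard rating.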
# [9] = tested on: velvetleaf (Abutilon theophrasti medicus); assay: as above; conditions: soil surface spray, upland field soil, 1,000 g active ingredient per hectare, 21st day after application
# How it was run: as §3
# [10] = tested on: barnyardgrass (Echinochloa crus-galli (L.) P. Beauv. var. crus-galli); assay: as above; conditions: soil surface spray, upland field soil, 1,000 g active ingredient per hectare, 21st day after application
# How it was run: as §3
# [11] = tested on: green foxtail (Setaria viridis (L.) P. Beauv.); assay: as above; conditions: soil surface spray, upland field soil, 1,000 g active ingredient per hectare, 21st day after application
# How it was run: as §3
SMILES,"herbicidal effect (index), Slender Amaranth [1]","herbicidal effect (index), Velvetleaf [2]","herbicidal effect (index), Barnyardgrass [3]","herbicidal effect (index), Green Foxtail [4]","herbicidal effect, Monochoria vaginalis (Burm. f.) C. Presl [5]","herbicidal effect, Echinochloa oryzicola Vasing [6]","herbicidal effect, Scirpus juncoides Roxb. [7]","herbicidal effect (index), Slender Amaranth [8]","herbicidal effect (index), Velvetleaf [9]","herbicidal effect (index), Barnyardgrass [10]","herbicidal effect (index), Green Foxtail [11]"
CSCn1c(C(F)(F)F)ccc(C(=O)C2=C(O)CCCC2=O)c1=O [I-46],5 (90% or more of herbicidal effect and crop phytotoxicity),5 (90% or more of herbicidal effect and crop phytotoxicity),5 (90% or more of herbicidal effect and crop phytotoxicity),3 (50 to less than 70% of herbicidal effect and crop phytotoxicity),5 (90% or more of herbicidal effect and crop phytotoxicity),5 (90% or more of herbicidal effect and crop phytotoxicity),5 (90% or more of herbicidal effect and crop phytotoxicity),5 (90% or more of herbicidal effect and crop phytotoxicity),5 (90% or more of herbicidal effect and crop phytotoxicity),5 (90% or more of herbicidal effect and crop phytotoxicity),3 (50 to less than 70% of herbicidal effect and crop phytotoxicity)
CCSCn1c(C(F)(F)F)ccc(C(=O)C2=C(O)CCCC2=O)c1=O [I-48],5 (90% or more of herbicidal effect and crop phytotoxicity),5 (90% or more of herbicidal effect and crop phytotoxicity),5 (90% or more of herbicidal effect and crop phytotoxicity),5 (90% or more of herbicidal effect and crop phytotoxicity),5 (90% or more of herbicidal effect and crop phytotoxicity),5 (90% or more of herbicidal effect and crop phytotoxicity),5 (90% or more of herbicidal effect and crop phytotoxicity),5 (90% or more of herbicidal effect and crop phytotoxicity),5 (90% or more of herbicidal effect and crop phytotoxicity),5 (90% or more of herbicidal effect and crop phytotoxicity),4 (70 to less than 90% of herbicidal effect and crop phytotoxicity)
CCS(=O)(=O)Cn1c(C(F)(F)F)ccc(C(=O)C2=C(O)CCCC2=O)c1=O [I-49],5 (90% or more of herbicidal effect and crop phytotoxicity),5 (90% or more of herbicidal effect and crop phytotoxicity),5 (90% or more of herbicidal effect and crop phytotoxicity),5 (90% or more of herbicidal effect and crop phytotoxicity),5 (90% or more of herbicidal effect and crop phytotoxicity),5 (90% or more of herbicidal effect and crop phytotoxicity),5 (90% or more of herbicidal effect and crop phytotoxicity),5 (90% or more of herbicidal effect and crop phytotoxicity),5 (90% or more of herbicidal effect and crop phytotoxicity),5 (90% or more of herbicidal effect and crop phytotoxicity),4 (70 to less than 90% of herbicidal effect and crop phytotoxicity)
CCCSCn1c(C(F)(F)F)ccc(C(=O)C2=C(O)CCCC2=O)c1=O [I-50],5 (90% or more of herbicidal effect and crop phytotoxicity),5 (90% or more of herbicidal effect and crop phytotoxicity),5 (90% or more of herbicidal effect and crop phytotoxicity),3 (50 to less than 70% of herbicidal effect and crop phytotoxicity),5 (90% or more of herbicidal effect and crop phytotoxicity),5 (90% or more of herbicidal effect and crop phytotoxicity),5 (90% or more of herbicidal effect and crop phytotoxicity),5 (90% or more of herbicidal effect and crop phytotoxicity),5 (90% or more of herbicidal effect and crop phytotoxicity),5 (90% or more of herbicidal effect and crop phytotoxicity),5 (90% or more of herbicidal effect and crop phytotoxicity)
CCCS(=O)(=O)Cn1c(C(F)(F)F)ccc(C(=O)C2=C(O)CCCC2=O)c1=O [I-51],5 (90% or more of herbicidal effect and crop phytotoxicity),5 (90% or more of herbicidal effect and crop phytotoxicity),5 (90% or more of herbicidal effect and crop phytotoxicity),5 (90% or more of herbicidal effect and crop phytotoxicity),5 (90% or more of herbicidal effect and crop phytotoxicity),5 (90% or more of herbicidal effect and crop phytotoxicity),5 (90% or more of herbicidal effect and crop phytotoxicity),5 (90% or more of herbicidal effect and crop phytotoxicity),5 (90% or more of herbicidal effect and crop phytotoxicity),5 (90% or more of herbicidal effect and crop phytotoxicity),5 (90% or more of herbicidal effect and crop phytotoxicity)
O=C1CCCC(O)=C1C(=O)c1ccc(C(F)(F)F)n(CSC2CC2)c1=O [I-52],5 (90% or more of herbicidal effect and crop phytotoxicity),5 (90% or more of herbicidal effect and crop phytotoxicity),5 (90% or more of herbicidal effect and crop phytotoxicity),5 (90% or more of herbicidal effect and crop phytotoxicity),5 (90% or more of herbicidal effect and crop phytotoxicity),5 (90% or more of herbicidal effect and crop phytotoxicity),5 (90% or more of herbicidal effect and crop phytotoxicity),5 (90% or more of herbicidal effect and crop phytotoxicity),5 (90% or more of herbicidal effect and crop phytotoxicity),5 (90% or more of herbicidal effect and crop phytotoxicity),5 (90% or more of herbicidal effect and crop phytotoxicity)
